Results: ChEMBL document CHEMBL3525943, “Regiospecific and stereospecific triangulation of the structures of metabolites formed by sequential metabolism at multiple prochiral centers” (Drug Metab Dispos, 2012)

What was measured:
[1] = Clearance in iv dosed rat; format: ADME, organism-based; conditions: in vivo
[2] = Plasma protein binding in rat; format: ADME, cell-free; conditions: read-out: PPB (converted)
[3] = Plasma protein binding in human; format: ADME, cell-free; conditions: read-out: PPB (converted)
[4] = Oral bioavailability in rat; format: ADME, organism-based; conditions: in vivo
[5] = Volume of distribution at steady state in rat; format: ADME, organism-based; conditions: in vivo, read-out: Vdss
[6] = Retention time of the compound in Sprague-Dawley rat urine treated with [14C]-AMG 221 at 2 mg/kg, po after 12 hrs by LC-MS/HPLC radiometric analysis; format: ADME, organism-based; parameters: dose 2 mg/kg, route oral; conditions: in vivo
[7] = Drug excretion in female Sprague-Dawley rat urine treated with [14C]-AMG 221 at 2 mg/kg, po measured over 24 hrs by LC-MS/HPLC radiometric analysis; format: ADME, organism-based; parameters: dose 2 mg/kg, route oral; conditions: in vivo
[8] = Drug excretion in male Sprague-Dawley rat feces treated with [14C]-AMG 221 at 2 mg/kg, po measured over 24 hrs by LC-MS/HPLC radiometric analysis; format: ADME, organism-based; parameters: dose 2 mg/kg, route oral; conditions: in vivo
Rattus norvegicus = assay: Total drug recovery in female Sprague-Dawley rat treated with [14C]-AMG 221 at 2 mg/kg, po measured over 48 hrs by liquid scintillation counting analysis; format: ADME, organism-based; parameters: dose 2 mg/kg, route oral; conditions: in vivo
[9] = Drug excretion in female Sprague-Dawley rat feces treated with [14C]-AMG 221 at 2 mg/kg, po measured over 24 hrs by LC-MS/HPLC radiometric analysis; format: ADME, organism-based; parameters: dose 2 mg/kg, route oral; conditions: in vivo
[10] = Drug excretion in male Sprague-Dawley rat urine treated with [14C]-AMG 221 at 2 mg/kg, po measured over 24 hrs by LC-MS/HPLC radiometric analysis; format: ADME, organism-based; parameters: dose 2 mg/kg, route oral; conditions: in vivo
[11] = Drug level in Sprague-Dawley rat urine treated with [14C]-(S)-2-((1R,2S,4R,5S)-5-hydroxybicyclo[2.2.1]heptan-2-ylamino)-5-isopropyl-5-methylthiazol-4(5H)-one at 5 mg/kg, po measured over 24 hrs by LC-MS/HPLC radiometric analysis; format: ADME, organism-based; parameters: dose 5 mg/kg, route oral; conditions: in vivo
Plasma [12] = assay: Retention time of the compound in Beagle dog plasma treated with [14C]-AMG 221 at 2 mg/kg, po measured at 0.5 hrs by LC-MS/HPLC radiometric analysis; format: ADME, organism-based, Canis lupus familiaris; parameters: dose 2 mg/kg, route oral; conditions: in vivo
Liver microsome [13] = assay: Retention time of the compound in rat liver microsomes treated with ((S)-2-((1S,2S,4R)-bicyclo[2.2.1]heptan-2-ylamino)-5-(2-hydroxypropan-2-yl)-5-methylthiazol-4(5H)-one at 20 uM preincubated for 5 mins followed by NADPH addition measured after 60 mins by LC-MS/MS analysis; format: ADME; conditions: 1 h
Liver microsome [14] = assay: Drug level in rat liver microsomes treated with (S)-2-((1S,2S,4R,6R)-6-hydroxybicyclo[2.2.1]heptan-2-ylamino)-5-isopropyl-5-methylthiazol-4(5H)-one at 20 uM preincubated for 5 mins followed by NADPH addition measured after 60 mins by LC-MS/MS analysis; format: ADME; conditions: 1 h
[15] = Retention time of the compound in Sprague-Dawley rat urine treated with [14C]-AMG 221 at 2 mg/kg, po measured over 24 hrs by LC-MS/HPLC radiometric analysis; format: ADME, organism-based; parameters: dose 2 mg/kg, route oral; conditions: in vivo
Liver microsome [16] = assay: Retention time of the compound in rat liver microsomes treated with (S)-2-((1S,2S,4R)-bicyclo[2.2.1]heptan-2-ylamino)-5-(2-hydroxypropan-2-yl)-5-methylthiazol-4(5H)-one at 20 uM preincubated for 5 mins followed by NADPH addition measured after 60 mins by LC-MS/MS analysis; format: ADME; conditions: 1 h
Liver microsome [17] = assay: Retention time of the compound in rat liver microsomes treated with [14C]-(S)-2-((1R,2S,4R,5S)-5-hydroxybicyclo[2.2.1]heptan-2-ylamino)-5-isopropyl-5-methylthiazol-4(5H)-one at 40 uM preincubated for 5 mins followed by NADPH addition measured after 60 mins by LC-MS/MS-radiometric analysis; format: ADME; conditions: 1 h
[18] = Retention time of the compound in urine of bile duct cannulated Sprague-Dawley rat treated with [14C]-(S)-2-((1R,2S,4R,5S)-5-hydroxybicyclo[2.2.1]heptan-2-ylamino)-5-isopropyl-5-methylthiazol-4(5H)-one at 5 mg/kg, po measured over 48 hrs by LC-MS/HPLC radiometric analysis; format: ADME, organism-based; parameters: dose 5 mg/kg, route oral; conditions: in vivo
[19] = Retention time of the compound in Beagle dog urine treated with [14C]-AMG 221 at 2 mg/kg, po measured over 24 hrs by LC-MS/HPLC radiometric analysis; format: ADME, organism-based, Canis lupus familiaris; parameters: dose 2 mg/kg, route oral; conditions: in vivo
Plasma [20] = assay: Retention time of the compound in Sprague-Dawley rat plasma treated with [14C]-AMG 221 at 2 mg/kg, po measured at 0.5 hrs by LC-MS/HPLC radiometric analysis; format: ADME, organism-based; parameters: dose 2 mg/kg, route oral; conditions: in vivo
Liver microsome [21] = assay: Retention time of the compound in rat liver microsomes treated with (S)-2-((1S,2S,4R)-bicyclo[2.2.1]heptan-2-ylamino)-5-((S)-1-hydroxypropan-2-yl)-5-methylthiazol-4(5H)-one at 20 uM preincubated for 5 mins followed by NADPH addition measured after 60 mins by LC-MS/MS analysis; format: ADME; conditions: 1 h
[22] = Retention time of the compound in bile duct cannulated Sprague-Dawley rat bile treated with [14C]-(S)-2-((1R,2S,4R,5S)-5-hydroxybicyclo[2.2.1]heptan-2-ylamino)-5-isopropyl-5-methylthiazol-4(5H)-one at 5 mg/kg, po measured over 48 hrs by LC-MS/HPLC radiometric analysis; format: ADME, organism-based; parameters: dose 5 mg/kg, route oral; conditions: in vivo

| Compound | Drug excretion [7] [%] | Drug excretion [8] [%] | Drug recovery (Rattus norvegicus) [%] | Drug excretion [9] [%] | Drug excretion [10] [%] | Retention_time [15] [min] | other results |
| --- | --- | --- | --- | --- | --- | --- | --- |
| CC(C)[C@]1(C)SC(N[C@H]2C[C@@H]3CC[C@H]2C3)=NC1=O | – | – | – | – | – | – | clearance [1]: 50 mL/min/kg; fraction unbound [2]: 0.15; fraction unbound [3]: 0.15; bioavailability [4]: 30%; Vd [5]: 1 L/kg |
| CC(C)[C@]1(C)SC(N[C@H]2C[C@H]3C[C@@H]2C[C@@H]3O)=NC1=O | 24 | 17 | 24.2 | 24 | 17 | – | Retention_time [6]: 30.3 min |
| CC(C)[C@]1(C)SC(N[C@H]2C[C@H]3C[C@@H]2C[C@H]3O)=NC1=O | 37 | 29 | 4.7 | 37 | 29 | – | Retention_time [6]: 30.9 min |
| CC(C)[C@]1(C)SC(N[C@H]2C[C@H]3C[C@@H]2CC3=O)=NC1=O | – | – | 9.1 | – | – | – | Retention_time [6]: 33.3 min; Drug metabolism [11]: metabolite_detected |
| CC(C)[C@]1(C)SC(N[C@H]2C[C@H]3C[C@@H]2[C@H](O)C3)=NC1=O | 37 | 29 | 3.2 | 37 | 29 | – | Retention_time [6]: 33 min |
| C=C(C)[C@]1(C)SC(N[C@H]2C[C@@H]3CC[C@H]2C3)=NC1=O | – | – | – | – | – | – | Retention_time (Plasma [12]): 40.7 min |
| CC(C)(O)[C@]1(C)SC(N[C@H]2C[C@H]3C[C@@H]2[C@H](O)C3)=NC1=O | 24 | 8.3 | 2.4 | 24 | 8.3 | – | Retention_time (Liver microsome [13]): 16.8 min; Drug metabolism (Liver microsome [14]): metabolite_detected |
| C[C@H](CO)[C@]1(C)SC(N[C@H]2C[C@H]3C[C@@H]2CC3=O)=NC1=O | – | – | 0.1 | – | – | 9.2 | – |
| CC(C)(O)[C@]1(C)SC(N[C@H]2C[C@H]3C[C@@H]2C[C@@H]3O)=NC1=O | 24 | 8.3 | – | 24 | 8.3 | – | Retention_time (Liver microsome [16]): 11.5 min; Retention_time (Liver microsome [17]): 11.5 min |
| C[C@@H](CO)[C@]1(C)SC(N[C@H]2C[C@H]3C[C@@H]2C[C@H]3O)=NC1=O | 24 | 8.3 | 0.1 | 24 | 8.3 | – | Retention_time [18]: 12.8 min |
| C[C@H](C(=O)O)[C@]1(C)SC(N[C@H]2C[C@@H]3CC[C@H]2C3)=NC1=O | – | – | – | – | – | 25.8 | – |
| C[C@@H](C(=O)O)[C@]1(C)SC(N[C@H]2C[C@@H]3CC[C@H]2C3)=NC1=O | – | – | 0.5 | – | – | – | Retention_time [19]: 35.7 min |
| C=C(C)[C@]1(C)SC(N[C@H]2C[C@H]3C[C@@H]2C[C@@H]3O)=NC1=O | – | – | 0.8 | – | – | 27.9 | – |
| C=C(C)[C@]1(C)SC(N[C@H]2C[C@H]3C[C@@H]2[C@H](O)C3)=NC1=O | – | – | 0.1 | – | – | – | Retention_time [19]: 29.9 min |
| CC(C)(O)[C@]1(C)SC(N[C@H]2C[C@@H]3CC[C@H]2C3)=NC1=O | 37 | 29 | 0.9 | 37 | 29 | – | Retention_time (Plasma [20]): 38.5 min |
| C[C@@H](CO)[C@]1(C)SC(N[C@H]2C[C@H]3C[C@@H]2CC3=O)=NC1=O | – | – | 2.1 | – | – | 14.1 | – |
| CC(C)(O)[C@]1(C)SC(N[C@H]2C[C@H]3C[C@@H]2CC3=O)=NC1=O | – | – | – | – | – | 20.7 | – |
| CC(C)(O)[C@]1(C)SC(N[C@H]2C[C@H]3C[C@@H]2C[C@H]3O)=NC1=O | 24 | 8.3 | – | 24 | 8.3 | – | Retention_time [18]: 12.8 min |
| C[C@@H](CO)[C@]1(C)SC(N[C@H]2C[C@H]3C[C@@H]2C[C@@H]3O)=NC1=O | 24 | 8.3 | 2.9 | 24 | 8.3 | – | Retention_time (Liver microsome [21]): 11.5 min; Retention_time (Liver microsome [17]): 11.5 min |
| C[C@H](CO)[C@]1(C)SC(N[C@H]2C[C@H]3C[C@@H]2C[C@H]3O)=NC1=O | 24 | 8.3 | 0.2 | 24 | 8.3 | 8.5 | – |
| C[C@H](CO)[C@]1(C)SC(N[C@H]2C[C@H]3C[C@@H]2[C@H](O)C3)=NC1=O | 24 | 8.3 | 0.1 | 24 | 8.3 | 9.9 | – |
| CC(CO[C@@H]1O[C@H](C(=O)O)[C@@H](O)[C@H](O)[C@H]1O)[C@]1(C)SC(N[C@H]2C[C@@H]3CC[C@H]2C3)=NC1=O (stereo partly drawn) | – | – | 0.1 | – | – | – | Retention_time [19]: 27.8 min |
| CC(C)[C@]1(C)SC(N[C@H]2C[C@H]3C[C@@H]2C[C@H]3O[C@@H]2O[C@H](C(=O)O)[C@@H](O)[C@H](O)[C@H]2O)=NC1=O | – | – | 0.2 | – | – | – | Retention_time [22]: 25.2 min |
| CC(C)[C@]1(C)SC(N[C@H]2C[C@H]3C[C@@H]2[C@H](O)[C@@H]3O)=NC1=O | 24 | 8.3 | 0.1 | 24 | 8.3 | 19.2 | – |
| CC(O)(CO)[C@]1(C)SC(N[C@H]2C[C@@H]3CC[C@H]2C3)=NC1=O (stereo partly drawn) | 24 | 8.3 | 0.1 | 24 | 8.3 | – | Retention_time [19]: 31.5 min |
| C[C@H](CO)[C@]1(C)SC(N[C@H]2C[C@H]3C[C@@H]2C[C@@H]3O)=NC1=O | 24 | 8.3 | 1.2 | 24 | 8.3 | 7.2 | Drug metabolism [11]: metabolite_detected |
| C[C@H](CO)[C@]1(C)SC(N[C@H]2C[C@@H]3CC[C@H]2C3)=NC1=O | 37 | 29 | 2.6 | 37 | 29 | – | Retention_time [6]: 34.6 min |
| C[C@@H](CO)[C@]1(C)SC(N[C@H]2C[C@@H]3CC[C@H]2C3)=NC1=O | 37 | 29 | 0.8 | 37 | 29 | – | Retention_time [6]: 37.5 min |
